Assays:
CDK4/CyclinD1 = CDK4/CyclinD1 (Homo sapiens, UniProt P11802); assay: CDK4/CyclinD1 Flashplate assay, 96-well format, biotinylated-Rb peptide substrate; assay type: biochemical
How it was run: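 Biotinylated Rb peptide bound to streptavidin Flashplate; CDK4/CyclinD1 (70 ng/well) preincubated 30 min on ice with compound at 10, 3, 1, 0.3 and 0.1 μM final. Reaction with 1 μM cold ATP plus 33P-ATP for 45 min at RT; incorporated 33P counted, duplicates.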

CDK2/CyclinE = CDK2/CyclinE (Homo sapiens, UniProt P24941); assay: CDK2/CyclinE Flashplate assay, 96-well format, biotinylated-Rb peptide substrate; assay type: biochemical
How it was run: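 Biotinylated Rb peptide was captured on streptavidin Flashplates, and CDK2/CyclinE (200 ng/well) was preincubated 30 min on ice with inhibitor at 10, 3, 1, 0.3 or 0.1 μM final. Reactions ran 45 min at RT with 1 μM ATP plus 1 μCi ^33P-ATP. After washing, incorporated ^33P was counted, in duplicate.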

CDK4/CyclinD1, sequence (P11802 whole entry, species assumed): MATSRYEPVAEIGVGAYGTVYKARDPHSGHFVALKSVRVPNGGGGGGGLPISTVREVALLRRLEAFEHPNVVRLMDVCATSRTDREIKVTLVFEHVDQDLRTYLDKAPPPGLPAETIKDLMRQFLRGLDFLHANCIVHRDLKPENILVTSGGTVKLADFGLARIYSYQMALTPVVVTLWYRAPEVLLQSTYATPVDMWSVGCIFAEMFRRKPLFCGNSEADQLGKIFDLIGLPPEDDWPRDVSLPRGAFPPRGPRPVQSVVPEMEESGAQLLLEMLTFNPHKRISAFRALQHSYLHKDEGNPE
CDK4/CyclinD1, sequence (P24385 whole entry partner, species assumed): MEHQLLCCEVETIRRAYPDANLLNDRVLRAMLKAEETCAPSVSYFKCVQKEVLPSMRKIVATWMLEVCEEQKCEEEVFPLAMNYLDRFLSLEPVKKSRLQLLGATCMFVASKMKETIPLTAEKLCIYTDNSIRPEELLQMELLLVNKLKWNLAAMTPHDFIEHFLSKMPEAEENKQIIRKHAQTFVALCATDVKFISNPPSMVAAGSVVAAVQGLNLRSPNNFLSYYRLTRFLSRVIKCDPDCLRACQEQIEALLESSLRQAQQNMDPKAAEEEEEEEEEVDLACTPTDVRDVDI

Compound	melting point [°C]	IC50 (CDK4/CyclinD1) [nM]	IC50 (CDK2/CyclinE) [nM]	inhibition at 10 µM (CDK4/CyclinD1) [%]
COC(=O)Nc1nc2cc(OS(=O)(=O)c3ccc(NCCO)cc3)ccc2[nH]1 [Example 1, Methyl-5-(4-[2-hydroxyethyl]aminophenylsulfonyloxy) benzimidazole-2-carbamate]	170	1500	600	
COCCNc1ccc(S(=O)(=O)Oc2ccc3[nH]c(NC(=O)OC)nc3c2)cc1 [Example 3, Methyl-5-(4-[2-methoxyethyl]aminophenylsulfonyloxy) benzimidazole-2-carbamate]	155	2400	500	
COC(=O)Nc1nc2cc(OS(=O)(=O)c3ccc(-n4ccnc4)cc3)ccc2[nH]1 [Example 4, Methyl-5-(4-[1-imidazolyl]-phenylsulfonyloxy) benzimidazole-2-carbamate]	258	6300	1500	
O=C(NCc1cccnc1)Nc1nc2cc(OS(=O)(=O)c3ccc(NCC4CCCO4)cc3)ccc2[nH]1 (centres unmarked) [Example 59-l, 4-[(Tetrahydro-furan-2-ylmethyl)-amino]-benzenesulfonic acid 2-(3-pyridin-3-ylmethyl-ureido)-1H-benzoimidazol-5-yl ester]		300	4	
COCC(C)NC(=O)Nc1nc2cc(OS(=O)(=O)c3ccc(NCC4CCCO4)cc3)ccc2[nH]1 (centres unmarked) [Example 59-e, 4-[(Tetrahydro-furan-2-ylmethyl)-amino]-benzenesulfonic acid 2-[3-(2-methoxy-1-methyl-ethyl)-ureido]-1H-benzoimidazol-5-yl ester]		1600	100	
O=C(NCCS(=O)(=O)O)Nc1nc2cc(OS(=O)(=O)c3ccc(-n4ccnc4)cc3)ccc2[nH]1 [Example 47, 4-Imidazol-1-yl-benzenesulfonic acid 2-[3-(2-sulfo-ethyl)-ureido]-1H-benzoimidazol-5-yl ester]		800	160	
CNc1ccc(S(=O)(=O)Oc2ccc3[nH]c(NC(=O)OC)nc3c2)cc1 [Example 14, Methyl-5-(4-methylaminophenylsulfonyloxy) benzimidazole-2-carbamate]		300	200	
O=C(NCc1ccccc1Cl)Nc1nc2cc(OS(=O)(=O)c3ccc(-n4ccnc4)cc3)ccc2[nH]1 [Example 57-g, 4-Imidazol-1-yl-benzenesulfonic acid 2-[3-(2-chloro-benzyl)-ureido]-1H-benzoimidazol-5-yl ester]			600	52
COC(=O)Nc1nc2cc(OS(=O)(=O)c3ccc(NCCCCO)cc3)ccc2[nH]1 [Example 2, Methyl-5-(4-[4-hydroxbutyl]aminophenylsulfonyloxy) benzimidazole-2-carbamate]	180	2000	700	
COC(=O)Nc1nc2cc(OS(=O)(=O)c3cccs3)ccc2[nH]1 [Example 62-b, Thiophene-2-sulfonic acid 2-methoxycarbonylamino-1H-benzoimidazol-5-yl ester]		440	200	
COCCCNc1ccc(S(=O)(=O)Oc2ccc3[nH]c(NC(=O)OC)nc3c2)cc1 [Example 13, Methyl-5-(4-[3-methoxypropyl]aminophenyl-sulfonyloxy) benzimidazole-2-carbamate]		400	2000	
O=C(NCCN1CCCCC1)Nc1nc2cc(OS(=O)(=O)c3ccc(NCC4CCCO4)cc3)ccc2[nH]1 (centres unmarked) [Example 59-r, 4-[(Tetrahydro-furan-2-ylmethyl)-amino]-benzenesulfonic acid 2-[3-(2-piperidin-1-yl-ethyl)-ureido]-1H-benzoimidazol-5-yl ester]		1800	220	
O=C(Nc1nc2cc(OS(=O)(=O)c3ccc(NCC4CCCO4)cc3)ccc2[nH]1)NC1CCC1 (centres unmarked) [Example 59-o, 4-[(Tetrahydro-furan-2-ylmethyl)-amino]-benzenesulfonic acid 2-(3-cyclobutyl-ureido)-1H-benzoimidazol-5-yl ester]		800	40	
O=C(NCCN1CCOCC1)Nc1nc2cc(OS(=O)(=O)c3ccc(NCC4CCCO4)cc3)ccc2[nH]1 (centres unmarked) [Example 59-i, 4-[(Tetrahydro-furan-2-ylmethyl)-amino]-benzenesulfonic acid 2-[3-(2-morpholin-4-yl-ethyl)-ureido]-1H-benzoimidazol-5-yl ester]		1200	40	

Other lines, results leading:

melting point [°C]	IC50 (CDK4/CyclinD1) [nM]	IC50 (CDK2/CyclinE) [nM]	inhibition at 10 µM (CDK4/CyclinD1) [%]	Compound
		400	88	CN(C)c1ccc(NC(=O)Nc2nc3cc(OS(=O)(=O)c4ccc(NC5CCCC5)cc4)ccc3[nH]2)cc1 [Example 49, 4-Cyclopentylamino-benzenesulfonic acid 2-[3-(4-dimethylamino-phenyl)-ureido]-1H-benzoimidazol-5-yl ester]
	390	40		O=C(NCCCN1CCCC1)Nc1nc2cc(OS(=O)(=O)c3ccc(NC4CCCC4)cc3)ccc2[nH]1 [Example 58-ag, 4-Cyclopentylamino-benzenesulfonic acid 2-[3-(3-pyrrolidin-1-yl-propyl)-ureido]-1H-benzoimidazol-5-yl ester]
	2800	60		O=C(NCc1cccc(F)c1)Nc1nc2cc(OS(=O)(=O)c3ccc(NC4CCCC4)cc3)ccc2[nH]1 [Example 41, 4-Cyclopentylamino-benzenesulfonic acid 2-[3-(3-fluoro-benzyl)-ureido]-1H-benzoimidazol-5-yl ester]
	500	100		CNC(=O)Nc1nc2cc(OS(=O)(=O)c3ccc(NC4CCCC4)cc3)ccc2[nH]1 [Example 31, N-[5-(4-cyclopentylaminophenylsulfonyloxy)-1H-benzimidazole-2-yl]-methylurea]
		1000	69	O=C(NCc1ccccc1Cl)Nc1nc2cc(OS(=O)(=O)c3ccc(NC4CCCC4)cc3)ccc2[nH]1 [Example 58-g, 4-Cyclopentylamino-benzenesulfonic acid 2-[3-(2-chloro-benzyl)-ureido]-1H-benzoimidazol-5-yl ester]
		900	70	O=C(Nc1nc2cc(OS(=O)(=O)c3ccc(NC4CCCC4)cc3)ccc2[nH]1)NC1CCCCC1 [Example 58-b, 4-Cyclopentylamino-benzenesulfonic acid 2-(3-cyclohexyl-ureido)-1H-benzoimidazol-5-yl ester]
	640	60		O=C(Nc1nc2cc(OS(=O)(=O)c3ccc(NC4CCCC4)cc3)ccc2[nH]1)NC1CC1 [Example 33, 4-Cyclopentylamino-benzenesulfonic acid 2-(3-cyclopropyl-ureido)-1H-benzoimidazol-5-yl ester]
	340	100		O=C(NCCNCCO)Nc1nc2cc(OS(=O)(=O)c3ccc(NC4CCCC4)cc3)ccc2[nH]1 [Example 58-aa, 4-Cyclopentylamino-benzenesulfonic acid 2-{3-[2-(2-hydroxy-ethylamino)-ethyl]-ureido}-1H-benzoimidazol-5-yl ester]
	190	250		CC(C)(N)CNC(=O)Nc1nc2cc(OS(=O)(=O)c3ccc(NC4CCCC4)cc3)ccc2[nH]1 [Example 58-w, 4-Cyclopentylamino-benzenesulfonic acid 2-[3-(2-amino-2-methyl-propyl)-ureido]-1H-benzoimidazol-5-yl ester]
		20	80	COC(=O)[C@@H]1CCCN1C(=O)Nc1nc2cc(OS(=O)(=O)c3ccc(NC4CCCC4)cc3)ccc2[nH]1 [Example 58-r, 1-[5-(4-Cyclopentylamino-benzenesulfonyloxy)-1H-benzoimidazol-2S-yl-carbamoyl]-pyrrolidine-2-carboxylic acid methyl ester]
	240	80		CCN(CC)CCNC(=O)Nc1nc2cc(OS(=O)(=O)c3ccc(NC4CCCC4)cc3)ccc2[nH]1 [Example 58-am, 4-Cyclopentylamino-benzenesulfonic acid 2-[3-(2-diethylamino-ethyl)-ureido]-1H-benzoimidazol-5-yl ester]
	2920	700		COC(=O)Nc1nc2cc(OS(=O)(=O)c3ccc(NC4CCCC4)cc3)ccc2[nH]1 [Example 19, Methyl-5-(4-cyclopentylaminophenylsulfonyloxy) benzimidazole-2-carbamate]

— patent publication US20050014811A1, “Substituted benzimidazole compounds and their use for the treatment of cancer” (Aventis Pharma S.A., priority 2001, published 2005)
